Assay results: publication PMC3266496 (2011)

Key:
trypanothione reductase [1] = biological target: T1, trypanothione reductase (Leishmania infantum, UniProt A4HSF7); test: X-ray crystal structure at […] Å; assay type: biochemical
trypanothione reductase [2] = biological target: T1, trypanothione reductase; test: NADPH oxidation kinetics at […] nm, Lineweaver–Burk and Dixon plots; assay type: biochemical

T1 sequence (A4HSF7 1-491): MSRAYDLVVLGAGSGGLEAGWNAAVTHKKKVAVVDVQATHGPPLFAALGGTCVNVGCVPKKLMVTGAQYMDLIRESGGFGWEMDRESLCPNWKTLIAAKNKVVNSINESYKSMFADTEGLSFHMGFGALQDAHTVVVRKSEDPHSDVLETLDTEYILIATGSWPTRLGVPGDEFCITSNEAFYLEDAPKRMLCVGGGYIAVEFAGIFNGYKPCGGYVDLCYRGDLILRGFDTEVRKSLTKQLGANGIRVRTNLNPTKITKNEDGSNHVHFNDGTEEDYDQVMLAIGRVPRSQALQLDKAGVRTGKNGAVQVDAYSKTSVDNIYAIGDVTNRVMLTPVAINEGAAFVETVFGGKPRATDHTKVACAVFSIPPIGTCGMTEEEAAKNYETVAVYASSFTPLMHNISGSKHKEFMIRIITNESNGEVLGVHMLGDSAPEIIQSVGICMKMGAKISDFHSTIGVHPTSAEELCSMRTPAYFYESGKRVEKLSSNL

SMILES	Ki (trypanothione reductase [1])	Ki (trypanothione reductase [2])
CC[P](CC)(CC)=[Au][S][C@@H]1O[C@H](COC(C)=O)[C@@H](OC(C)=O)[C@H](OC(C)=O)[C@H]1OC(C)=O [AF, auranofin]	0.155 ± 0.035 µM	
CCP(CC)CC.[Au+].[Cl-] [CTPAu, Chloro(triethylphosphine)gold(I)]		0.018 ± 0.007 µM
